Measured values as given in patent US10047105B2, “Gyrase inhibitors” (Merck Sharp & Dohme Corp., priority 2009, dated 2018).
≈ marks a conversion by molar mass, not a printed value.

What was measured:
Assay type in all cases: cell-based
S. pneumoniae ATCC 51916 = test: MIC, S. pneumoniae; settings: S. pneumoniae (Spn52); in µg/mL
S. aureus ATCC 13709 = test: MIC, antibacterial potency, S. aureus; settings: S. aureus (SA); in µg/mL
E. coli 8 ATCC 25922 = test: MIC, E. coli 8 (wt); settings: E. coli 8 (EC8)

Structure (SMILES) | MIC Spn52 (S. pneumoniae ATCC 51916) | MIC, SA (S. aureus ATCC 13709) | MIC EC8 (E. coli 8 ATCC 25922)
CCc1[nH]c2nc(Oc3ccc4nccnc4c3)nc(Oc3ccc4c(c3)ncc[n+]4[O-])c2c1Br [701,060] | <=0.5 | <=0.5 | > 64 µg/mL
CCc1[nH]c2nc(Oc3ccc4c(c3)ncc[n+]4[O-])nc(Oc3ccc4nccnc4c3)c2c1Cl [701,061] | <=0.5 | <=0.5 | > 32 µg/mL
CCc1[nH]c2nc(Sc3ccc4[nH]cc(C(=O)OC)c4c3)nc(N3CC[C@@H](N)C3)c2c1Cl [701,062] | 16 | 16 | > 64 µg/mL
NC1C2CN(c3nc(Sc4cnc5cccnc5c4)nc4[nH]c(C5CC5)c(Cl)c34)CC12 (stereo not drawn) [701,063] | 2 | 2 | 4 µg/mL (≈ 8.89 µM)
N[C@@H]1CCN(c2nc(Sc3cnc4cccnc4c3)nc3[nH]c(C4CC4)c(Cl)c23)C1 [701,064] | 4 | 8 | 4 µg/mL (≈ 9.13 µM)
NC1CN(c2nc(Sc3cnc4cccnc4c3)nc3[nH]c(C4CC4)c(Cl)c23)C1 [701,065] | 4 | 8 | 16 µg/mL (≈ 37.7 µM)
CCc1[nH]c2nc(Sc3ccc4[nH]c(N)nc(=O)c4c3)nc(N3CC[C@@H](N)C3)c2c1Cl [701,066] | >64 | 4 | > 64 µg/mL
CCc1[nH]c2nc(Oc3cc4ncn(C)c4[n+]([O-])c3)nc(Oc3cnc4c(c3)ncn4C)c2c1Cl [701,067] | >64 | >64 | > 64 µg/mL
CCc1[nH]c2nc(Sc3ccc4cncnc4c3)nc(N3CC4C(N)C4C3)c2c1Cl (stereo not drawn) [701,069] | <=0.5 | <=0.5 | 8 µg/mL (≈ 18.3 µM)
CCc1[nH]c2nc(Oc3ccc4cccnc4c3)nc(N3CC[C@@H](N)C3)c2c1Cl [701,070] | 8 | 4 | 64 µg/mL (≈ 157 µM)
NC1CN(c2nc(Sc3cnc4ccc[n+]([O-])c4c3)nc3[nH]c(C4CC4)c(Cl)c23)C1 [701,074] | 4 | 8 | 8 µg/mL (≈ 18.2 µM)
N[C@@H]1CCN(c2nc(Sc3cnc4ccc[n+]([O-])c4c3)nc3[nH]c(C4CC4)c(Cl)c23)C1 [701,075] | 8 | 8 | 8 µg/mL (≈ 17.6 µM)
CCc1[nH]c2nc(SC)nc(N3CC[C@@H](N)C3)c2c1Cl [701,076] | 64 | >64 | > 64 µg/mL
CCc1[nH]c2nc(SC)nc(N3CC[C@@H](N)C3)c2c1C#N [701,077] | >64 | >64 | > 64 µg/mL
CCc1[nH]c2nc(Oc3cc(C#N)c(OC)c(OC)c3)nc(Oc3ccc4nccnc4c3)c2c1Br [701,081] | <=0.5 | <=0.5 | > 32 µg/mL
CCc1[nH]c2nc(Sc3ccc4cc5c(nc4c3)CCOC5)nc(N3CC[C@@H](N)C3)c2c1Cl [701,082] | 16 | <=0.5 | 4 µg/mL (≈ 8.32 µM)
CCc1[nH]c2nc(Sc3ccc4cc5c([n+]([O-])c4c3)CCOC5)nc(N3CC[C@@H](N)C3)c2c1Cl [701,083] | 1 | <=0.5 | 16 µg/mL (≈ 32.2 µM)
CCc1[nH]c2nc(Sc3ccc4cc5c([n+]([O-])c4c3)CCOC5)nc(N3CC4C(N)C4C3)c2c1Cl (stereo not drawn) [701,084] | <=0.5 | <=0.5 | 8 µg/mL (≈ 15.7 µM)
CCc1[nH]c2nc(Sc3ccc4nc(N)n[n+]([O-])c4c3)nc(N3CC[C@@H](N)C3)c2c1Cl [701,087] | <=0.5 | <=0.5 | > 64 µg/mL
CCc1[nH]c2nc(Sc3cc(C#N)c4c(c3)c(=O)ccn4C)nc(N3CC[C@@H](N)C3)c2c1Cl [701,088] | 1 | 1 | 32 µg/mL (≈ 66.7 µM)
CCc1[nH]c2nc(Sc3cnc(N4CCC4)c([N+](=O)[O-])c3)nc(N3CC[C@@H](N)C3)c2c1Cl [701,089] | 4 | 2 | > 64 µg/mL
CCc1[nH]c2nc(Sc3ccc4[nH]nnc4c3)nc(N3CC[C@@H](N)C3)c2c1Cl [701,090] | 8 | 8 | > 64 µg/mL

Structure (SMILES) | MIC Spn52 (S. pneumoniae ATCC 51916) | MIC, SA (S. aureus ATCC 13709) | MIC EC8 (E. coli 8 ATCC 25922)
CCc1[nH]c2nc(Oc3ccc[n+]([O-])c3)nc(Oc3ccc4nccnc4c3)c2c1Br [701,091] | <=0.5 | <=0.5 | > 64 µg/mL
CCc1[nH]c2nc(Oc3ccc[n+]([O-])c3)nc(Oc3ccc[n+]([O-])c3)c2c1Br [701,092] | 2 | <=0.5 | > 64 µg/mL
CCc1[nH]c2nc(Oc3ccc[n+]([O-])c3)nc(Oc3cccnc3)c2c1Br [701,093] | 4 | <=0.5 | > 32 µg/mL
CCc1[nH]c2nc(Sc3cnc4[nH][nH]c(=O)c4c3)nc(N3CC[C@@H](N)C3)c2c1Cl [701,094] | >64 | >64 | > 64 µg/mL
CCc1[nH]c2nc(Oc3cccc(S(C)(=O)=O)c3)nc(Oc3ccc4nccnc4c3)c2c1Br [701,095] | <=0.5 | <=0.5 | > 64 µg/mL
CCc1[nH]c2nc(Oc3cnc(OC)c(OC)c3)nc(Oc3ccc4nccnc4c3)c2c1Br [701,096] | <=0.5 | <=0.5 | > 64 µg/mL
CCc1[nH]c2nc(Oc3cnc(OC)c(OC)c3)nc(Oc3cnc(OC)c(OC)c3)c2c1Br [701,097] | 1 | <=0.5 | > 64 µg/mL
CCc1[nH]c2nc(Sc3cnc4nccnc4c3)nc(N3CCC4CN[C@H]4C3)c2c1Cl (stereo partly drawn) [701,102] | 1. | <=0.5 | 16 µg/mL (≈ 35.3 µM)
CCc1[nH]c2nc(Oc3cncnc3)nc(Oc3ccc4c(N5CCOCC5)ncnc4c3)c2c1Br [701,104] | <=0.5 | <=0.5 | > 32 µg/mL
CCc1[nH]c2nc(Oc3cnc(O)nc3)nc(Oc3cnc(O)nc3)c2c1Br [701,105] | 2 | 1 | > 64 µg/mL
CCc1[nH]c2nc(Oc3cnc(N)nc3)nc(Oc3cnc(N)nc3)c2c1Br [701,106] | 4 | 2 | > 64 µg/mL
CCc1[nH]c2nc(Oc3cnc(N)nc3)nc(N3CC(CN(C)C)C3)c2c1Cl [701,112] | 32 | 16 | > 64 µg/mL
CCc1[nH]c2nc(Oc3ccc4nccnc4c3)nc(N3CC(CN(C)C)C3)c2c1Cl [701,113] | 32 | 32 | > 64 µg/mL
CCc1[nH]c2nc(Oc3ccc4nccnc4c3)nc(N3CC(CN(C)C)C3)c2c1Br [701,114] | 16 | 8 | > 64 µg/mL
CCc1[nH]c2nc(Sc3cnc4cccnc4c3)nc(N3CCC4CNC4C3)c2c1Cl (stereo not drawn) [701,115] | <=0.5 | <=0.5 | 16 µg/mL (≈ 35.4 µM)
CCc1[nH]c2nc(Sc3cnc4ccc[n+]([O-])c4c3)nc(N3CCC4CNC4C3)c2c1Cl (stereo not drawn) [701,116] | 2 | <=0.5 | 16 µg/mL (≈ 34.2 µM)
Cc1[nH]c2nc(Sc3cnc4nccnc4c3)nc(N3CC4C(N)C4C3)c2c1C (stereo not drawn) [701,117] | 8 | 8 | > 64 µg/mL
CCc1[nH]c2nc(Sc3cnc4nccnc4c3)nc(N3CC4NC4C3)c2c1Cl (stereo not drawn) [701,118] | 2 | 4 | 64 µg/mL (≈ 151 µM)
CCc1[nH]c2nc(Sc3cnc4nccnc4c3)nc(N3C[C@@H](O)[C@@H](N)C3)c2c1Cl [701,119] | 16 | 32 | > 64 µg/mL
CCc1[nH]c2nc(Sc3cnc4nccnc4c3)nc(N3CCC(CC)(NC(=O)C(F)(F)F)C3)c2c1Cl (stereo not drawn) [701,120] | 32 | 4 | > 64 µg/mL
CCc1[nH]c2nc(Oc3cnc(N)nc3)nc(N3CC4C(N)C4C3)c2c1Cl (stereo not drawn) [701,122] | 2 | 2 | 32 µg/mL (≈ 82.7 µM)
CCc1[nH]c2nc(Oc3cnc4cccnc4c3)nc(N3CC4C(N)C4C3)c2c1Cl (stereo not drawn) [701,126] | <=0.5 | <=0.5 | 4 µg/mL (≈ 9.48 µM)
